Data taken from US20240150839A1, “METHODS FOR PREDICTING RESPONSIVENESS OF PROSTATE CANCER PATIENTS TO PARP INHIBITORS” (Memorial Sloan Kettering Cancer Center, priority 2019, published 2024).

What was measured:
BRCA2-null LNCaP cells = assay: MTT cell growth of BRCA2 CRISPR-edited LNCaP cells with PARP inhibitors or cisplatin; assay type: cell-based, human; settings: BRCA2 knockout LNCaP vs control gRNA (scr) cells; complete medium, 6 days (FIG. 7C)
Procedure: Cells infected with scrambled (scr) gRNA were used as control. Equal amount of proteins was loaded in WedgeWell 6% gel and western blot was performed. ˜400 kDa BRCA2 band is indicated by arrow. GAPDH served as loading controls for western blot and qPCR. […] Genotypes are detected by PCR amplification followed by being treated with T7 endonuclease. Wt and mutant BRCA2 are indicated by red and green arrows, respectively. […] Equivalent volume of DMSO was used as placebo treatment. Cell growth was measured by MTT assay (see Example 1); SD, P-values determined by Student's t-test. *P<0.05, **P<0.01, ***P<0.001. FIGS. 7D-7E show the growth curve (FIG. 7D) and a bar graph (FIG. 7E) representing the cell growth of LNCaP BRCA2 CRISPR-edited and non-targeting control gRNA (scr) infected cells in complete medium supplemented with enzalutamide (ENZ; indicated concentration) for 7 days or charcoal-stripped medium (CSS) for 5 days, respectively. Equivalent volume of DMSO was used as placebo treatment. Cell growth was measured by crystal violet staining assay (see Example 1) (±SD); P-values determined by Student's t-test. […] Equivalent volume of DMSO was used as placebo treatment. Cell growth was measured by MTT assay (see Example 1) (±SD); P-values determined by Student's t-test. […] Total RNA was isolated, and BRCA2 mRNA was analyzed by qPCR. […] Cell growth was measured by MTT assay; SD, P-values determined by Student's t-test.
To generate BRCA2 knockout RWPE1 cells, BRCA2 gRNA2 was cloned into LentiCRISPRv2-GFP backbone which constitutively expresses Cas9 and GFP. Lentiviral infected cells were selected by FACS sorting for GFP positive cells (twice) and analyzed by western blot. […] Loss of BRCA2 in the pooled populations of LNCaP cells was analyzed by western blot using BRCA2-specific antibodies and this pooled population of cells was used for the following experiments. […]
Cell Proliferation Assay by MTT, BrdU and Crystal Violet. […] MTT crystals were dissolved in isopropanol and absorbance was measured in a BioTek plate reader at […] and represented graphically.

LNCaP-BRCA2-RB1 cells = assay: qPCR of EMT transcription factors after androgen (R1881) treatment; assay type: cell-based, human; settings: 1 nM R1881, 48 hours in CSS (FIG. 3I)
Procedure: Scr-CRISPR and BRCA2-CRISPR2 cells were also transfected with non-targeting shRNA (scr-Sh) for control of shRNA. GAPDH served as the loading control. […] Nuclei were stained with DAPI (blue). […] Control cells were transfected with empty vector. […] GAPDH served as the loading control. […] LNCaP cells were used as control. GAPDH served as the loading control. […] Nuclei were stained with DAPI (blue). […] Equivalent volume of DMSO was used as placebo treatment. Cell growth was measured by MTT assay; SD, P-values determined by Student's t-test. […] LNCaP-BRCA2-RB1 or control cells were incubated in charcoal-stripped medium (CSS) for 24 hours followed by treatment with 1 nM R1881 for another 48 hours (in CSS). […] Expression of the indicated genes normalized with untreated control and GAPDH. […] Scrambled-SMARTpool siRNA transfected LNCaP cells were used as control. 2.5×10^3 indicated cells (72 hours after indicated siRNA transfection) were plated on the top of Boyden chamber in serum-free media; 10% serum in the bottom chamber was used as chemo-attractant. After 24 hours, cells in the lower side of the chamber were fixed, stained, photographed in 100× magnification (top panel), and counted and represented in the form of the bar graph (bottom panel). P-values were determined by Student's t-test.
RNA Extraction and qPCR. […] All quantifications were normalized to endogenous GAPDH.

Row | SMILES | sensitivity (cell growth, MTT) (BRCA2-null LNCaP cells) | SLUG mRNA (qPCR) (LNCaP-BRCA2-RB1 cells)
1 | CNCc1ccc(-c2[nH]c3cc(F)cc4c3c2CCNC4=O)cc1 [rucaparib] | more sensitivity | 
2 | C[C@]1(O)CC[C@H]2[C@@H]3CCC4=CC(=O)CCC4=C3C=C[C@@]21C [R1881] |  | significantly increased
